Measurements from patent US12649755B2, “Plasmin inhibitor, preparation method therefor and application thereof” (SCINNOHUB PHARMACEUTICAL CO., LTD, priority 2020, dated 2026).
Where two headings read alike, the source gives them in different places.

Key:
[1] = Rat PK assay, intravenous administration; format: in vivo; details: male, Sprague-Dawley, plasma, SD rats, 1 mg/kg single dose
Description: The pharmacokinetic profile of the compounds of the invention in rats was studied by measuring the plasma drug concentration after intravenous administration.
Male Sprague-Dawley rats of SPF grade, 3 rats each group, were obtained from: Shanghai Sippe-Bk Lab Animal Co., Ltd.
The compound was weighed and dissolved in normal saline to prepare a 0.2 mg/mL solution for intravenous administration.
The day before the experiment, the rats were fasted overnight and fed 4 hours after administration.
On the day of the experiment, the rats were administered according to the scheme in the table below. At each time point after administration, approximately 200 μL of blood was collected from the jugular vein and placed in heparin sodium anticoagulation tubes. Blood samples were placed on ice after collection, and the plasma was separated by centrifugation within 1 hour (centrifugation conditions: 6800 g, 6 minutes, 2-8° C.). The separated plasma was stored in a refrigerator at −80° C. for biological sample analysis.
The compound concentration in rat plasma was determined by the following method: • Instruments and equipment: LC-MS/MS-19 (TQ5500, AB SCIEX, USA). • Internal standard: warfarin. • Chromatographic column: ACQUITY UPLC BEH C18, model 1.7 um 2.1*50 mm, purchased from Shenzhen Novah Chemical Technology Co., Ltd.; • Flow rate: 0.60 ml/min. • Column temperature: 40° C. • Mobile phase A: 0.1% formic acid in water. • Mobile phase B: 0.1% formic acid in acetonitrile.
Take 30 μL of the plasma sample prepared from item “3”, add 300 μL MeOH containing 100 ng/ml of internal standard to precipitate protein. The mixture was vortexed for 1 minute and centrifuged at 18000 g for 7 minutes. The supernatant was transferred to a 96-well plate. Inject 4 μL of supernatant into LC-MS/MS for analysis.
The concentration of the compound in rat plasma was determined by the above-mentioned LC-MS/MS analysis method, and pharmacokinetic parameters were calculated by using Phoenix WinNonlin7.0 software according to blood concentration data of different time points.

[2] = tested on: plasma clots (human plasma, tPA-induced lysis); experiment: Plasma clot lysis assay; format: biochemical
From the text: To determine the inhibitory effect of the compounds of the invention on the degradation of plasma clots.
3. […] The time corresponding to the median of the absorption value in the descending section-the time corresponding to the median of the absorption value in the ascending section is the plasma clot degradation time (Clot lysis time).
Taking the log value of the compound concentration as the X-axis, and the percentage inhibition rate as the Y-axis, and dose-response curves were fitted with the software GraphPad Prism 5 by using log (inhibitor) vs. Response-Variable slope to derive IC50 values of compounds inhibiting the degradation of plasma clots. Y=min+(max−min)/(1+10^((LogIC50−X)×Hillslope). Formula: […]

[3] = tested on: human whole blood under hyperfibrinolytic state induced by rtPA; experiment: Human whole blood thromboelastography (TEG) assay; format: biochemical
Description: The antifibrinolytic effect of the compounds of the invention in the human whole blood under hyperfibrinolytic state induced by rtPA (recombinant tissue […]) was determined using the Thromboelastogram (TEG).
• Source of human blood: All human blood used in the experiments was provided by healthy volunteers. 3. Experimental Procedure • (1) Preparation of test substance solution: Accurately weigh the test substance, and use normal saline to prepare the test substance to the following concentrations (100×test concentration): • Tranexamic acid (μM): 3000, 1000, 300, 100, 30, 10, 0; • Example 6 (μM): 1000, 300, 100, 30, 10, 3, 0. • (2) Preparation of rt-PA (alteplase for injection): the active dry powder of rtPA was formulated to 25 μg/mL using water for injection in the rtPA package. • (3) Reaction system:
Mix 392 μL of sodium citrate anticoagulated whole blood with 4 μL rtPA and 4 μL test substance, reacted at room temperature, and TEG curve was detected for 2 hours to obtain the time parameter of CLT (clot lysis time). • (4) Result calculations
Taking the log value of the compound concentration as the X-axis and the CLT value as the Y-axis, and dose-response curves were fitted using log (inhibitor) vs. Response-Variable slope (GraphPad Prism 8 software).
The concentration of compound corresponding to doubling the CLT time was calculated.

[4] = relative inhibition of plasma clot lysis vs tranexamic acid in vitro, plasma clot lysis

Row | Structure (SMILES) | IC50 ratio (IC50 Examples/IC50 Tranexamic acid) [2, 4] | also measured
1 | Cl.O=P(O)(O)c1ccc2c(n1)CCNC2 [Example 1, (5,6,7,8-tetrahydro-1,6-naphthyridin-2-yl)phosphonic Acid Hydrochloride] | 0.19 | AUC [1]: 14 µg·h/mL; Cmax [1]: 10.2 µg/mL; clearance [1]: 0.0685 L/h/kg; half-life [1]: 1.96 h; IC50 ([2]; human plasma, tPA, clot lysis time by absorbance at 405 nm, read-out: IC50 value for inhibition of plasma clot lysis): 0.9 µM
2 | Cl.O=P(O)(O)c1nc2c(cc1F)CNCC2 [Example 2, (3-fluoro-5,6,7,8-tetrahydro-1,6-naphthyridin-2-yl)phosphonic Acid Hydrochloride] | 0.11 | AUC [1]: 30.1 µg·h/mL; Cmax [1]: 10.1 µg/mL; clearance [1]: 0.0333 L/h/kg; half-life [1]: 4.15 h
3 | CCP(=O)(O)c1ccc2c(n1)CCNC2.Cl [Example 3, Ethyl (5,6,7,8-tetrahydro-1,6-naphthyridin-2-yl)-phosphinic Acid Hydrochloride] | – | IC50 ratio (IC50 Examples/IC50 Tranexamic acid) [2]: 0.86
4 | Cl.O=P(O)(CCc1ccccc1)c1ccc2c(n1)CCNC2 [Example 4, Phenylethyl (5,6,7,8-tetrahydro-1,6-naphthyridin-2-yl) Phosphinic Acid Hydrochloride] | 0.36 | –
5 | Cl.O=P(O)(O)c1ccc2c(n1)C(F)(F)CNC2 [Example 5, (8,8-difluoro-5,6,7,8-tetrahydro-1,6-naphthyridin-2-yl) Phosphonic Acid Hydrochloride] | 1.3 | –
6 | O=P(O)(O)c1ccc2c(n1)CCNC2 [Example 6, (5,6,7,8-tetrahydro-1,6-naphthyridin-2-yl) Phosphonic Acid Monohydrate] | 0.09 | Compound concentration for doubling CLT [3]: 0.12 µM; CLT doubling ([3]; clot lysis time at the doubling concentration): 37.06 min
7 | Cl.O=P(O)(O)c1ccc2c(n1)C(N1CCOCC1)CNC2 (stereo not drawn) [Example 7, (8-morpholino-5,6,7,8-tetrahydro-1,6-naphthyridin-2-yl) Phosphonic Acid Hydrochloride] | 0.3 | –
8 | Cl.O=P(O)(O)c1ccc2c(n1)C(O)CNC2 (stereo not drawn) [Example 8, (8-hydroxy-5,6,7,8-tetrahydro-1,6-naphthyridin-2-yl) Phosphonic Acid Hydrochloride] | 0.2 | AUC [1]: 6.66 µg·h/mL; Cmax [1]: 5.99 µg/mL; clearance [1]: 0.146 L/h/kg; half-life [1]: 1.74 h
9 | Cl.O=P(O)(O)c1ccc2c(n1)C(OCCO)CNC2 (stereo not drawn) [Example 9, (8-(2-hydroxyethoxy)-5,6,7,8-tetrahydro-1,6-naphthyridin-2-yl) Phosphonic Acid Hydrochloride] | 0.25 | –
10 | CC(C)CC1Cc2nc(P(=O)(O)O)ccc2CN1.Cl (stereo not drawn) [Example 11, (7-isobutyl-5,6,7,8-tetrahydro-1,6-naphthyridin-2-yl) Phosphonic Acid Hydrochloride] | 0.08 | –
11 | CCCC1Cc2nc(P(=O)(O)O)ccc2CN1.Cl (stereo not drawn) [Example 12, (7-propyl-5,6,7,8-tetrahydro-1,6-naphthyridin-2-yl) Phosphonic Acid Hydrochloride] | 0.2 | –
12 | Cl.O=P(O)(O)c1ccc2c(n1)CC(CCc1ccccc1)NC2 (stereo not drawn) [Example 13, (7-phenylethyl-5,6,7,8-tetrahydro-1,6-naphthyridin-2-yl) Phosphonic Acid Hydrochloride] | 0.2 | –
13 | CCOP(=O)(O)c1ccc2c(n1)CCNC2.Cl [Example 15] | 0.29 | AUC [1]: 2.83 µg·h/mL; Cmax [1]: 4.89 µg/mL; clearance [1]: 0.351 L/h/kg; half-life [1]: 0.77 h
14 | COc1ccc(CCC2Cc3nc(P(=O)(O)O)ccc3CN2)cc1.Cl (stereo not drawn) [Example 16] | 0.07 | –
15 | Cl.O=P(O)(c1ccccc1)c1ccc2c(n1)CCNC2 [Example 17] | 0.2 | AUC [1]: 2.82 µg·h/mL; Cmax [1]: 4.09 µg/mL; clearance [1]: 0.35 L/h/kg; half-life [1]: 1.53 h
16 | CC(=O)OCOP(=O)(O)c1ccc2c(n1)CCNC2 [Example 18] | 0.23 | –
17 | CC(C)C(=O)OCOP(=O)(O)c1ccc2c(n1)CCNC2 [Example 19] | 0.26 | –

Row | Structure (SMILES) | IC50 ratio (IC50 Examples/IC50 Tranexamic acid) [2, 4] | also measured
18 | Cl.O=P(O)(O)c1ccc2c(n1)C(N1CCSCC1)CNC2 (stereo not drawn) [Example 20] | 0.21 | –
19 | Cl.O=P(O)(O)c1ccc2c(n1)C(N1CCS(=O)(=O)CC1)CNC2 (stereo not drawn) [Example 21] | 0.25 | –
20 | Cl.O=P(O)(O)c1ccc2c(n1)CC(COCCCO)NC2 (stereo not drawn) [Example 22] | 0.14 | AUC [1]: 5.53 µg·h/mL; Cmax [1]: 6.79 µg/mL; clearance [1]: 0.179 L/h/kg; half-life [1]: 3.58 h
21 | CC(C)(C)CC1Cc2nc(P(=O)(O)O)ccc2CN1.Cl (stereo not drawn) [Example 23] | 0.19 | –
22 | CC(C)C1Cc2nc(P(=O)(O)O)ccc2CN1.Cl (stereo not drawn) [Example 24] | 0.14 | –
23 | Cl.O=P(O)(O)c1ccc2c(n1)CC(CCCc1ccccc1)NC2 (stereo not drawn) [Example 25] | 0.21 | –
24 | CC(C)CCC1Cc2nc(P(=O)(O)O)ccc2CN1.Cl (stereo not drawn) [Example 26] | 0.09 | –
25 | CC(C)(C)CCC1Cc2nc(P(=O)(O)O)ccc2CN1.Cl (stereo not drawn) [Example 27] | 0.1 | –
26 | Cl.O=P(O)(O)c1ccc2c(n1)CC(CC1CCCCC1)NC2 (stereo not drawn) [Example 28] | 0.07 | –
27 | Cl.O=P(O)(O)c1ccc2c(n1)CC(CCC1CCCCC1)NC2 (stereo not drawn) [Example 29] | 0.09 | –
28 | Cl.O=P(O)(O)c1ccc2c(n1)CC(Cc1ccccc1)NC2 (stereo not drawn) [Example 30] | 0.75 | –
29 | CC(C)CC1(CC(C)C)Cc2nc(P(=O)(O)O)ccc2CN1.Cl [Example 31] | 0.1 | –
30 | Cl.O=P(O)(O)c1ccc2c(n1)CC1(CCC1)NC2 [Example 32] | 0.7 | –
31 | Cl.O=P(O)(O)c1ccc2c(n1)CC1(CCCC1)NC2 [Example 33] | 0.22 | –
32 | Cl.O=P(O)(O)c1ccc2c(n1)CC1(CCCCC1)NC2 [Example 34] | 0.29 | –
33 | CCOC(=O)OCOP(=O)(O)c1ccc2c(n1)CCNC2 [Example 35] | 0.18 | –
